Data reported in ChEMBL document CHEMBL1909046, “DrugMatrix in vitro pharmacology data”.

Key:
[1] = DRUGMATRIX: Serotonin (5-Hydroxytryptamine) 5-HT3 radioligand binding (ligand: [3H] GR-65630); format: cell membranes, Membrane; settings: hek293, Not Active = under 50% inhibition at 10 µM
[2] = biological target: T1, Vasoactive intestinal polypeptide receptor 1 (Homo sapiens, UniProt P32241); format: cell membranes, Membrane; settings: ht-29; note: in other assays of this panel Not Active means under 50% inhibition at 10 µM
T1 sequence (P32241 whole entry): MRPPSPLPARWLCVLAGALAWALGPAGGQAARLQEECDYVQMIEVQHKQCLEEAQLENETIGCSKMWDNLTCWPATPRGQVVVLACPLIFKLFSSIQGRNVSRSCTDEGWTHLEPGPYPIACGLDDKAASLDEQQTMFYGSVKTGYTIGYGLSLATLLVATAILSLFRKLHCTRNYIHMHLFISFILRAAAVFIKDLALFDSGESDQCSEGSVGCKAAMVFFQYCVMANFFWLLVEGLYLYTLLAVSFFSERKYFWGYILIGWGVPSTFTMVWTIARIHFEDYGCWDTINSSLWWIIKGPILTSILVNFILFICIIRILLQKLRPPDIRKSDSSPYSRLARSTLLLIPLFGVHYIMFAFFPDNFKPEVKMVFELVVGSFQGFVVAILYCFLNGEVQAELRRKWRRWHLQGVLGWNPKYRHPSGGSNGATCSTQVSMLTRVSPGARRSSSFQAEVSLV

[3] = DRUGMATRIX: GABAA, Chloride Channel, TBOB radioligand binding (ligand: [3H] TBOB); format: cell membranes, Rattus norvegicus, Wistar, Cerebral cortex, Membrane; settings: Not Active = under 50% inhibition at 10 µM
[4] = biological target: T2, Cysteinyl leukotriene receptor 1 (Homo sapiens, UniProt Q9Y271); format: cell membranes, CHO-K1, Membrane; settings: cho-k1; note: in other assays of this panel Not Active means under 50% inhibition at 10 µM
T2 sequence (Q9Y271 whole entry): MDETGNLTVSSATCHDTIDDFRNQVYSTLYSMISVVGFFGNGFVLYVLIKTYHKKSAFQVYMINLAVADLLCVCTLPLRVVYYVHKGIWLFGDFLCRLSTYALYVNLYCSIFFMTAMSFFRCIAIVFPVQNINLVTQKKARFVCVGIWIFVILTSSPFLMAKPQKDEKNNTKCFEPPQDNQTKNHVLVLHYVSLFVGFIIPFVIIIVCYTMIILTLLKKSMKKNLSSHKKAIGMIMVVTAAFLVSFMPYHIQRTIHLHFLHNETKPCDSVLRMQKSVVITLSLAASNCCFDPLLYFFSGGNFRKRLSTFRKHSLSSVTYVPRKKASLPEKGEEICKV

[5] = biological target: T3, Amine oxidase [flavin-containing] A (Homo sapiens, UniProt P21397); assay: DRUGMATRIX: Monoamine Oxidase MAO-A enzyme inhibition (substrate: Kynuramine); design: species or system BTI-TN-5B1-4; settings: Not Active = under 50% inhibition at 10 µM
T3 sequence (P21397 whole entry): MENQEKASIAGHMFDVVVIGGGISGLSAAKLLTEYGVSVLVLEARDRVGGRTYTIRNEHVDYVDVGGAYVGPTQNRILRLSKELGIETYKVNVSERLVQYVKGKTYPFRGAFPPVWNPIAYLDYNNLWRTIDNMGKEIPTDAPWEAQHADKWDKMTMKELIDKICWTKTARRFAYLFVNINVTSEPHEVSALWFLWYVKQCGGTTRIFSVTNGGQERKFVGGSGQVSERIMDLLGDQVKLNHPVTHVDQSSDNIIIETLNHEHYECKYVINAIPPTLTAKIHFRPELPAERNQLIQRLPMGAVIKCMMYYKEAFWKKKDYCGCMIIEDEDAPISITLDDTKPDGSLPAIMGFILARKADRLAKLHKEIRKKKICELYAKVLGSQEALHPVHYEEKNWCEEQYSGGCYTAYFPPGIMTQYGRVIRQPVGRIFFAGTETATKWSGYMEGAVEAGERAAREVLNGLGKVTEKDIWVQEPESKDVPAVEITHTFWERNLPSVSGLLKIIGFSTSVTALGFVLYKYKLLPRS

[6] = biological target: Tyrosine-protein kinase Fyn (Homo sapiens, UniProt P06241); assay: biochemical; format: cell-based, Insect cells; settings: insect cells;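 note: enzymatic inhibition of Fyn kinase activity measured with Poly(Glu:Tyr) as the phosphorylation substrate; in other assays of this panel Not Active means under 50% inhibition at 10 µM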
Chain of Tyrosine-protein kinase Fyn (P06241 whole entry): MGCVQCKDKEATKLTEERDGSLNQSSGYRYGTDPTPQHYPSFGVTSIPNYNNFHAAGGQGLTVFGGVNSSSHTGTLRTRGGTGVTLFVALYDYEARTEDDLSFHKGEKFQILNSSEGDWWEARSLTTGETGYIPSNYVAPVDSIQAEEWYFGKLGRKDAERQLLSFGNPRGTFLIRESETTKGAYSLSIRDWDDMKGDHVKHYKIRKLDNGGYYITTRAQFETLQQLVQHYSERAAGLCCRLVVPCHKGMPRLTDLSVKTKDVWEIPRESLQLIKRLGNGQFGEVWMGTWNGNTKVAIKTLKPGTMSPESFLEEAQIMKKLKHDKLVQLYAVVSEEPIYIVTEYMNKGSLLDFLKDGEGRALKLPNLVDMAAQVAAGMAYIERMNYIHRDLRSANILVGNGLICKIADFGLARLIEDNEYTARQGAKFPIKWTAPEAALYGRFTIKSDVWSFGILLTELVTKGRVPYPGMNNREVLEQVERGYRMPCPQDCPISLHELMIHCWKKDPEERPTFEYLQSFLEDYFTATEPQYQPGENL

Compound | IC50 [1] | Ki [1] | IC50 [2] | IC50 [3] | Ki [3] | IC50 [4] | IC50 ([5]; bti-tn-5b1-4) | IC50 [6] | IC50 ([1]; read-out: IC50) | Ki ([1]; read-out: Ki) | IC50 ([5]; read-out: IC50) | Ki [2] | Ki [4] | Ki ([5]; bti-tn-5b1-4) | IC50 ([6]; read-out: IC50)
CCN[C@@H]1C[C@H](N)[C@@H](O[C@H]2OC(CN)=CC[C@H]2N)[C@H](O)[C@H]1O[C@H]1OC[C@](C)(O)[C@H](NC)[C@H]1O [NETILMICIN] | Not Active | Not Active | Not Active | Not Active | Not Active | Not Active | Not Active | Not Active |  |  |  |  |  |  | 
COC(=O)C1=C(C)NC(C)=C(C(=O)OCC(C)C)C1c1ccccc1[N+](=O)[O-] (centres undefined) [NISOLDIPINE] | Not Active | Not Active | Not Active | Not Active | Not Active | Not Active | Not Active | Not Active |  |  |  |  |  |  | 
CCOC(=O)C1=C(C)NC(C)=C(C(=O)OC)C1c1cccc([N+](=O)[O-])c1 (centres undefined) [NITRENDIPINE] | Not Active | Not Active | Not Active | Not Active | Not Active | Not Active | Not Active | Not Active |  |  |  |  |  |  | 
C#C[C@]1(OC(C)=O)CC[C@H]2[C@@H]3CCC4=CC(=O)CC[C@@H]4[C@H]3CC[C@@]21C [NORETHINDRONE ACETATE] | Not Active | Not Active | Not Active | Not Active | Not Active | Not Active | Not Active | Not Active |  |  |  |  |  |  | 
COc1ccc2[nH]c([S+]([O-])Cc3ncc(C)c(OC)c3C)nc2c1 (centres undefined) [OMEPRAZOLE] | Not Active | Not Active | Not Active | Not Active | Not Active | Not Active | Not Active | Not Active |  |  |  |  |  |  | 
Cc1nccn1CC1CCc2c(c3ccccc3n2C)C1=O (centres undefined) [ONDANSETRON] |  |  | Not Active | Not Active | Not Active | Not Active | Not Active | Not Active | 9.29 nM | 2.09 nM |  |  |  |  | 
CCn1cc(C(=O)O)c(=O)c2cc(F)c(N3CCN(C)CC3)cc21 [PEFLOXACIN] | Not Active | Not Active | Not Active | Not Active | Not Active | Not Active | Not Active | Not Active |  |  |  |  |  |  | 
CCCCOc1ccc(OCCCN2CCOCC2)cc1 [PRAMOXINE] | Not Active | Not Active | Not Active | Not Active | Not Active | Not Active | Not Active | Not Active |  |  |  |  |  |  | 
O=C(C1CCCCC1)N1CC(=O)N2CCc3ccccc3C2C1 (centres undefined) [PRAZIQUANTEL] | Not Active | Not Active | Not Active | Not Active | Not Active | Not Active | Not Active | Not Active |  |  |  |  |  |  | 
CCN(CC)CCOC(=O)c1ccc(N)cc1 [PROCAINE] | Not Active | Not Active | Not Active | Not Active | Not Active | Not Active | Not Active | Not Active |  |  |  |  |  |  | 
CCCN(CCC)C(=O)C(CCC(=O)O)NC(=O)c1ccccc1 (centres undefined) [PROGLUMIDE] | Not Active | Not Active | Not Active | Not Active | Not Active | Not Active | Not Active | Not Active |  |  |  |  |  |  | 
NC(=O)c1cnccn1 [PYRAZINAMIDE] | Not Active | Not Active | Not Active | Not Active | Not Active | Not Active | Not Active | Not Active |  |  |  |  |  |  | 
OC(CCN1CCCCC1)(c1ccccc1)C1CCCCC1 (centres undefined) [TRIHEXYPHENIDYL] | Not Active | Not Active | Not Active | Not Active | Not Active | Not Active | Not Active | Not Active |  |  |  |  |  |  | 
Cc1cc2cc3c(C)cc(=O)oc3c(C)c2o1 [TRIOXSALEN] | Not Active | Not Active | Not Active | Not Active | Not Active | Not Active |  | Not Active |  |  | 831 nM |  |  |  | 
CCCC(CCC)C(=O)O [VALPROIC ACID] | Not Active | Not Active | Not Active | Not Active | Not Active | Not Active | Not Active | Not Active |  |  |  |  |  |  | 
CCC1=C[C@@H]2CN(C1)Cc1c([nH]c3ccccc13)[C@@](C(=O)OC)(c1cc3c(cc1OC)N(C)[C@H]1[C@@](O)(C(=O)OC)[C@H](OC(C)=O)[C@]4(CC)C=CCN5CC[C@]31[C@@H]54)C2 [VINORELBINE] | Not Active | Not Active | Not Active | Not Active | Not Active | Not Active | Not Active | Not Active |  |  |  |  |  |  | 
CADMIUM DICHLORIDE | Not Active | Not Active | Not Active | Not Active | Not Active | Not Active | Not Active |  |  |  |  | Not Active | Not Active | Not Active | 137 nM
